Bridge positions count the residues as written; N and C are the ends. Side chains are listed from the residue outwards. Peptide text beside a SMILES is read from it. * marks the point of attachment. Butanoyl(4-(4-I-phenyl)) = O=C(CCCc1ccc(I)cc1)*; PEG2 = NCCOCCOCCC(=O)O
Key:
[1] = Hepatocyte stability, cryopreserved human hepatocytes; format: in vitro ADME
[2] = Plasma protein binding, rapid equilibrium dialysis, human plasma; format: in vitro ADME; details: for fraction unbound at 4 h, 2 μM: human, plasma, pH 7.4
[3] = molecular target: T1, AVPR1A (Homo sapiens, UniProt P37288); test: Safetyscan47 GPCR Calcium Flux, Agonist; format: cell-based; details: for Emax: read-out: Max Response
[4] = molecular target: T1, AVPR1A; test: Safetyscan47 GPCR Calcium Flux, Antagonist; format: cell-based; details: for Emax: read-out: Max Response
[5] = molecular target: T2, CCKAR (Homo sapiens, UniProt P32238); test: Safetyscan47 GPCR Calcium Flux, Antagonist; format: cell-based; details: for Emax: read-out: Max Response
T2 sequence (P32238 1-428): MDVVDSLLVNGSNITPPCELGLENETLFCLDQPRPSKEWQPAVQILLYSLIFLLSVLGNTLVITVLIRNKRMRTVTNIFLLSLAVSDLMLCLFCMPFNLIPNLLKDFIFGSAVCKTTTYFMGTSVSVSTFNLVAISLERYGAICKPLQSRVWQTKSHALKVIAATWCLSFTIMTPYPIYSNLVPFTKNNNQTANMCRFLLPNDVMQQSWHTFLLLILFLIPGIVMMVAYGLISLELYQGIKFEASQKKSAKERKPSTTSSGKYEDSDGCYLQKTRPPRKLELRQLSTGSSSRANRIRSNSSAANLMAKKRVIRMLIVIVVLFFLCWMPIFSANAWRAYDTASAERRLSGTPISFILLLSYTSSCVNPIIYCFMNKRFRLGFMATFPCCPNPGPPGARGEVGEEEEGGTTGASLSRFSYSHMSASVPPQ

[6] = molecular target: T3, CHRM2 (Homo sapiens, UniProt P08172); test: Safetyscan47 GPCR cAMP, Agonist; format: cell-based; details: for Emax: read-out: Max Response
T3 sequence (P08172 1-466): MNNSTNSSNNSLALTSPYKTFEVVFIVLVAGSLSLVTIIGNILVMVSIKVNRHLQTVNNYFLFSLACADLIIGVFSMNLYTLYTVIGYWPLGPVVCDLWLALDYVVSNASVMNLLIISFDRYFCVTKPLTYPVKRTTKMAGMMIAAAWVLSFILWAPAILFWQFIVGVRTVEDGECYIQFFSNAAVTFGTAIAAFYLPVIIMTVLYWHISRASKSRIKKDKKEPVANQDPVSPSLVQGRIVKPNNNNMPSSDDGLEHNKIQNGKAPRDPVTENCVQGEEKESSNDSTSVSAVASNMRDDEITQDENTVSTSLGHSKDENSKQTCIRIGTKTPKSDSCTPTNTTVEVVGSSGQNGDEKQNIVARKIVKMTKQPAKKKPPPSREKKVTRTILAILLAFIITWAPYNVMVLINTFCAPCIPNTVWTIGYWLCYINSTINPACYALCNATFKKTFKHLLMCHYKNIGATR

[7] = molecular target: DRD1 (Homo sapiens, UniProt P21728); test: Safetyscan47 GPCR cAMP, Agonist; format: cell-based; details: for Emax: read-out: Max Response
[8] = molecular target: OPRD1 (Homo sapiens, UniProt P41143); test: Safetyscan47 GPCR cAMP, Antagonist; format: cell-based; details: for Emax: read-out: Max Response
[9] = molecular target: OPRK1 (Homo sapiens, UniProt P41145); test: Safetyscan47 GPCR cAMP, Antagonist; format: cell-based; details: for Emax: read-out: Max Response
[10] = molecular target: KvLQT1/minK (Homo sapiens, UniProt P15382+P51787); test: Safetyscan47 Ion Channel, Opener; format: cell-based; details: for Emax: read-out: Max Response
[11] = molecular target: INSR (Homo sapiens, UniProt P06213); test: Safetyscan47 Kinases Binding, Inhibitor; details: for Emax: read-out: Max Response
[12] = molecular target: ROCK1 (Homo sapiens, UniProt Q13464); test: Safetyscan47 Kinases Binding, Inhibitor; details: for Emax: read-out: Max Response
[13] = molecular target: T4, AR (Homo sapiens, UniProt P10275); test: Safetyscan47 NHR Nuclear Translocation, Agonist; format: cell-based; details: for Emax: read-out: Max Response
T4 sequence (P10275 1-920): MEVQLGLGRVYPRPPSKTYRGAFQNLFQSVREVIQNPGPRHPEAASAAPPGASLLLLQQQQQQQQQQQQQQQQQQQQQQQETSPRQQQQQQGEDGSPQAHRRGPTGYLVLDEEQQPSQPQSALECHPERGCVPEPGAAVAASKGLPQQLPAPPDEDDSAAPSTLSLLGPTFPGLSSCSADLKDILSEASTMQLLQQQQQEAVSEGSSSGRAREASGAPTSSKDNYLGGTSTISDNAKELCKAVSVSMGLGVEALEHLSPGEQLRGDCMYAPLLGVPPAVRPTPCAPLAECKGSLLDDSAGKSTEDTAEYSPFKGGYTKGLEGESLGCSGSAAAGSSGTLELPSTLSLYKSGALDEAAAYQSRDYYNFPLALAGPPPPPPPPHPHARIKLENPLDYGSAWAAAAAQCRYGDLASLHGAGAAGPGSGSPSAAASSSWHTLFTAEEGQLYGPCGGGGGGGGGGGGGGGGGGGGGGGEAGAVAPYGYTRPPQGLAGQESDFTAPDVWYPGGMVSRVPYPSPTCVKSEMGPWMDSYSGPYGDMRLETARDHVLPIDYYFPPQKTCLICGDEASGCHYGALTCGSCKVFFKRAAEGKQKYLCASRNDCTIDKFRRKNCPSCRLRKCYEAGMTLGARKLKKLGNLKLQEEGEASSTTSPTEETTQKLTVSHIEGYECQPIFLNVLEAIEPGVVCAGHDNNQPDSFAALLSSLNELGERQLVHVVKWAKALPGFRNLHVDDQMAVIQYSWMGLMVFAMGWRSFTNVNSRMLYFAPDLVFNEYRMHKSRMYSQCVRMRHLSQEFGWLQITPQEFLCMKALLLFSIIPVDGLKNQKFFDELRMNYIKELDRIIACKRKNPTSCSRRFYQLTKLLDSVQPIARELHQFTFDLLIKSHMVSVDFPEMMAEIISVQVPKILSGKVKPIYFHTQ

[14] = molecular target: PDE4D2 (Homo sapiens, UniProt Q08499); test: Safetyscan47 Non-Kinase Enzymes Enzymatic, Inhibitor; format: biochemical; details: for Emax: read-out: Max Response

INSR, sequence (P06213 28-1382): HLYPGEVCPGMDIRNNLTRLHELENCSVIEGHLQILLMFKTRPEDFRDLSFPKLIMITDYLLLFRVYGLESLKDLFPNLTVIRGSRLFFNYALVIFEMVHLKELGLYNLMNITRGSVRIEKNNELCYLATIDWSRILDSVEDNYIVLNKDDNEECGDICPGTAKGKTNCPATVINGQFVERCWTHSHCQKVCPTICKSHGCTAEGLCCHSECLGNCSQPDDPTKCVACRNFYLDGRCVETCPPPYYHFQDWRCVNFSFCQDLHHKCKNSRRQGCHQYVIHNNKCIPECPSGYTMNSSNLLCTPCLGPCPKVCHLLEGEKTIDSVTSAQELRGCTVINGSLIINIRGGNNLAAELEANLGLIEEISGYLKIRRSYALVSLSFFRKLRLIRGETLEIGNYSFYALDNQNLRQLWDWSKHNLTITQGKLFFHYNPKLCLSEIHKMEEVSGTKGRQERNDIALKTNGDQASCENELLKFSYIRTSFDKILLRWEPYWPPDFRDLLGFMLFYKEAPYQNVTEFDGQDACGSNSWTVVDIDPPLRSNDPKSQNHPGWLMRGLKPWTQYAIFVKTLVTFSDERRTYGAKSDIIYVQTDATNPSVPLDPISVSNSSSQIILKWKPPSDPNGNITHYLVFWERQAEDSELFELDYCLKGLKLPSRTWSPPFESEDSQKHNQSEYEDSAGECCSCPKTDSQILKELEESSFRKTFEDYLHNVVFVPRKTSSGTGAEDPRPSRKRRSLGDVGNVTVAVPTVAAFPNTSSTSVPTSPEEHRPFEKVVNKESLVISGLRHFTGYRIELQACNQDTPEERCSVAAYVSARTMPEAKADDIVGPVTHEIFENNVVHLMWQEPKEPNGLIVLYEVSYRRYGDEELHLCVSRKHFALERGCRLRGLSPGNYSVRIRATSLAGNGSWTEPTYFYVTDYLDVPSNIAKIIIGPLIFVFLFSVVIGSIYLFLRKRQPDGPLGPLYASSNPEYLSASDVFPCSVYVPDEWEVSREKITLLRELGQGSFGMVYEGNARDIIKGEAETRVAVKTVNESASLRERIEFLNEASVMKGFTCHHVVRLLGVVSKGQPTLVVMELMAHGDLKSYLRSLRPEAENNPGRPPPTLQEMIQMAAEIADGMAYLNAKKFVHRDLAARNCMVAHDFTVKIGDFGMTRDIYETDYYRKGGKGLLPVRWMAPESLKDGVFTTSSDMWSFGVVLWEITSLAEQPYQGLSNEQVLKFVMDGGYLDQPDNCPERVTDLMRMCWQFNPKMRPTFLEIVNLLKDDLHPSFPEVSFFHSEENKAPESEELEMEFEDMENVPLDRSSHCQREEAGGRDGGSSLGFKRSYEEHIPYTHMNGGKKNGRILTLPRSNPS
T1 sequence (P37288 whole entry): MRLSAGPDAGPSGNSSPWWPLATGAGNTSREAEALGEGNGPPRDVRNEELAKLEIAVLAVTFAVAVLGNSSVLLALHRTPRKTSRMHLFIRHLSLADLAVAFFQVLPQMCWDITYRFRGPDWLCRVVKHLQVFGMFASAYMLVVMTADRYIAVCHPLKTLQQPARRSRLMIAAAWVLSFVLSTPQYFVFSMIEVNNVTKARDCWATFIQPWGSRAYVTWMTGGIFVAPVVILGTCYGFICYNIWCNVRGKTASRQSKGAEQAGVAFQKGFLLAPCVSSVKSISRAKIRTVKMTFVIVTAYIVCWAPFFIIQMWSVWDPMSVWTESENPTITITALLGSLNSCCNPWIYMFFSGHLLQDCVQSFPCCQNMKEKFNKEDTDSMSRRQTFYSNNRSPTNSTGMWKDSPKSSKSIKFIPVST
ROCK1, sequence (Q13464 whole entry): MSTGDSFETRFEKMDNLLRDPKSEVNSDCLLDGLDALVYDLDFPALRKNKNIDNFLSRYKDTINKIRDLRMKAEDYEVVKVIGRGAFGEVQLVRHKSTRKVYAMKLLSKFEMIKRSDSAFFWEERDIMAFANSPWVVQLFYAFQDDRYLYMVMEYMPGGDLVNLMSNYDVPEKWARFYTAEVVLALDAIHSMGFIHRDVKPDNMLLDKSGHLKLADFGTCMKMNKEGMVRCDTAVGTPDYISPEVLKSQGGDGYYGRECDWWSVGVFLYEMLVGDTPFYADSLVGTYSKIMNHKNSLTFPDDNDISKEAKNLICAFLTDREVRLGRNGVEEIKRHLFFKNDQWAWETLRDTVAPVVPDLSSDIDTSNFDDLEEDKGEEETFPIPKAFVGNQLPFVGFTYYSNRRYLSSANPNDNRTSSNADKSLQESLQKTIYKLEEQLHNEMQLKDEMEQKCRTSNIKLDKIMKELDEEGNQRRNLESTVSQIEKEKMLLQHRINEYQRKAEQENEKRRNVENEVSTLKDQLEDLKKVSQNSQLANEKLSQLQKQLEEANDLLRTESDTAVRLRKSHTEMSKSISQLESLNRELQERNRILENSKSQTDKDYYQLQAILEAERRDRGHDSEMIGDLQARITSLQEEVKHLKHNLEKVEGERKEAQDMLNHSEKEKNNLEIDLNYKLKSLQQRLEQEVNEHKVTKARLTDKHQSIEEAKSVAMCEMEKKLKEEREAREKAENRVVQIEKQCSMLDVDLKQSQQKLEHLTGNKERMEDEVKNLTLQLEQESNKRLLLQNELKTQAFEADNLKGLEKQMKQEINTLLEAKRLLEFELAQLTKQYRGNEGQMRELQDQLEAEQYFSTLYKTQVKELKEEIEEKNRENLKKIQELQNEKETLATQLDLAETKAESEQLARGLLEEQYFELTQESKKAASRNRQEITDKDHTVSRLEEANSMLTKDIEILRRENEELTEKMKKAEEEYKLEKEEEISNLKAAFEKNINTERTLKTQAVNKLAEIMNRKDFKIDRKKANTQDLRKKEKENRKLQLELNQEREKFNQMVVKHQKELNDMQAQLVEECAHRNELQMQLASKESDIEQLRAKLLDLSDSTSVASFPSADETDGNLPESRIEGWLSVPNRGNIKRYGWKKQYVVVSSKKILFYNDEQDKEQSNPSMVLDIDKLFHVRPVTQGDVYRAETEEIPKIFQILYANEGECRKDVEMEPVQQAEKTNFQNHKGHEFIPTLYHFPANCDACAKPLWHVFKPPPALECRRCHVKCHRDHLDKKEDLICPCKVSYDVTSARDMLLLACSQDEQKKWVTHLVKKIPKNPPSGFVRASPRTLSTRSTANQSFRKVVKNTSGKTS
OPRK1, sequence (P41145 whole entry): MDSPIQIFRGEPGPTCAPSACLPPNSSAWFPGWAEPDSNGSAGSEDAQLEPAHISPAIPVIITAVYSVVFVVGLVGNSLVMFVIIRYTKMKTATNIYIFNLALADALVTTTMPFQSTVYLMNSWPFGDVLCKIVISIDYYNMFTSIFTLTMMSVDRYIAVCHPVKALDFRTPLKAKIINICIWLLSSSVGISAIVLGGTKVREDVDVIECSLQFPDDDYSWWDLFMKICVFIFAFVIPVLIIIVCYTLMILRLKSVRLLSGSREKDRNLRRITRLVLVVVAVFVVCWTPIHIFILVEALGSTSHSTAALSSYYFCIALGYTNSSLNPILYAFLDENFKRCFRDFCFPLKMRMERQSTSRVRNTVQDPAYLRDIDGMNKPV
KvLQT1/minK, sequence (P51787 whole entry): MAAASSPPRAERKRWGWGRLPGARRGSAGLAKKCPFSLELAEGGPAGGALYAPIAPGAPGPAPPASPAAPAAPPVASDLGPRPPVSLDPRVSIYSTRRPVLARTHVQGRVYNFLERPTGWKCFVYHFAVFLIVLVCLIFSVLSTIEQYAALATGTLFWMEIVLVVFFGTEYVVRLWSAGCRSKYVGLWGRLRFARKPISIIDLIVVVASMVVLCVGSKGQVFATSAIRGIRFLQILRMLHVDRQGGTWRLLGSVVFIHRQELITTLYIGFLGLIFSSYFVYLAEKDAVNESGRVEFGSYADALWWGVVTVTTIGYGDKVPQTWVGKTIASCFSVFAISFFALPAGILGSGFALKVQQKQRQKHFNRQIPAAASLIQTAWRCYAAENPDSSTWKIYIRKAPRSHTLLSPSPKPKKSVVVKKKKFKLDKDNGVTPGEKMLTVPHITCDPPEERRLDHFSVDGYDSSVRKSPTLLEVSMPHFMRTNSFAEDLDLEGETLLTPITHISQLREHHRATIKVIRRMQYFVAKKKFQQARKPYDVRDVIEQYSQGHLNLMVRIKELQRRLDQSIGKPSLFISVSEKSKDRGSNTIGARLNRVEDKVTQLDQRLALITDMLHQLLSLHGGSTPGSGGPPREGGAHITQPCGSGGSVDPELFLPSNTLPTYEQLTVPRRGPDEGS
OPRD1, sequence (P41143 whole entry): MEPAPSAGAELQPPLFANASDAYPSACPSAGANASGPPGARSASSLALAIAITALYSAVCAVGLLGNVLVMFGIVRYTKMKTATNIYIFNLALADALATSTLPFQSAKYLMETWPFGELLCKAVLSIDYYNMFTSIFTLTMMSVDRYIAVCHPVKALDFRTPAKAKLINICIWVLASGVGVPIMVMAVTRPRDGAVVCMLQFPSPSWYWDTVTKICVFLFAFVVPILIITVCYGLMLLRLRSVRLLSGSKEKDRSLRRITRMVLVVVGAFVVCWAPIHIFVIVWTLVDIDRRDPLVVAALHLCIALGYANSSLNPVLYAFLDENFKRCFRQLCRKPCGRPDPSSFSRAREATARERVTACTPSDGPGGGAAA

## CC[C@H](C)[C@H](NC(=O)[C@H](CC(C)C)NC(=O)[C@H](CC(=O)O)NC(=O)CNC(=O)[C@H](CCCNC(=N)N)NC(=O)[C@@H](NC(=O)[C@H](Cc1ccccc1)NC(=O)[C@H](Cc1ccc(O)cc1)NC(=O)[C@@H]1CCC(=O)NCC(=O)NCC(=O)N[C@@H](CCCNC(=N)N)C(=O)NCC(=O)N[C@@H](Cc2c[nH]cn2)C(=O)N[C@@H](C(C)C)C(=O)N2CCC[C@H]2C(=O)N1)C(C)C)C(=O)N[C@@H](CO)C(=O)N[C@@H](Cc1ccccc1)C(=O)N[C@@H](Cc1ccc(O)cc1)C(=O)N[C@@H](CCCCNC(=O)CCOCCOCCNC(=O)CCCc1ccc(I)cc1)C(=O)O [lassotide 47] (GGRGHVPEYFVRGDLISFYK([PEG2-Butanoyl(4-(4-I-phenyl))])-OH; lactam N-8)
[1]
  remaining at 1 h, 2 μM: 85.3%
  remaining at 3 h, 2 μM: 84.8%
[2]; human plasma, RED, 2 μM, 4 h, 37°C
  Plasma protein binding, %Recovery: 101%
[2]
  fraction unbound at 4 h, 2 μM: 0.006
[3]
  EC50: > 45 µM
  Emax: 8.02%
[4]
  IC50: > 45 µM
  Emax: 25.8%
[5]
  IC50: > 45 µM
  Emax: 3.35%
[6]
  EC50: > 45 µM
  Emax: 32.7%
[7]
  EC50: > 45 µM
  Emax: 0%
[8]; RC50 (IC50), GPCR cAMP, Antagonist, OPRD1
  IC50: 40.3 µM
[8]
  Emax: 56.4%
[9]
  IC50: > 45 µM
  Emax: 0%
[10]
  EC50: > 45 µM
  Emax: 0%
[11]
  IC50: > 45 µM
  Emax: 11.2%
[12]
  IC50: > 45 µM
  Emax: 2.56%
[13]
  EC50: > 45 µM
  Emax: 0%
[14]
  IC50: > 45 µM
  Emax: 28.5%

## CC[C@H](C)[C@H](NC(=O)[C@H](CC(C)C)NC(=O)[C@H](CC(=O)O)NC(=O)CNC(=O)[C@H](CCCNC(=N)N)NC(=O)[C@@H](NC(=O)[C@H](Cc1ccccc1)NC(=O)[C@H](Cc1ccc(O)cc1)NC(=O)[C@@H]1CCC(=O)NCC(=O)NCC(=O)N[C@@H](CCCNC(=N)N)C(=O)NCC(=O)N[C@@H](Cc2c[nH]cn2)C(=O)N[C@@H](C(C)C)C(=O)N2CCC[C@H]2C(=O)N1)C(C)C)C(=O)N[C@@H](CO)C(=O)N[C@@H](Cc1ccccc1)C(=O)N[C@@H](Cc1ccc(O)cc1)C(=O)N[C@@H](CCCCN)C(=O)O [lassotide 36] (GGRGHVPEYFVRGDLISFYK-OH; lactam N-8)
[1]
  half-life at 2 μM: 4.1 h
  remaining at 1 h, 2 μM: 87.9%
  remaining at 3 h, 2 μM: 57.8%
[2]
  fraction unbound at 4 h, 2 μM: 0.126
[3]
  EC50: > 45 µM
  Emax: 1.03%
[4]
  IC50: > 45 µM
  Emax: 13.3%
[5]
  IC50: > 45 µM
  Emax: 3.61%
[6]
  EC50: > 45 µM
  Emax: 7.71%
[7]
  EC50: > 45 µM
  Emax: 0%
[8]; RC50, Antagonist, Result Type IC50
  IC50: > 45 µM
[8]
  Emax: 0%
[9]
  IC50: > 45 µM
  Emax: 0%
[10]
  EC50: > 45 µM
  Emax: 0%
[11]
  IC50: > 45 µM
  Emax: 17.4%
[12]
  IC50: > 45 µM
  Emax: 19%
[13]
  EC50: > 45 µM
  Emax: 0%
[14]
  IC50: > 45 µM
  Emax: 0%

Reference: publication doi:10.1101/2025.01.28.635346v1 (bioRxiv, 2025)
